According to patent publication US8263555B2 (Alcon Research, Ltd., priority 2007, dated 2012):
Values joined by “and” are separate entries in the source; they are usually repeats but may differ in a detail not shown here. Equal values may be shown once. One block for each molecule: values may come before it.

How the values were obtained:
[1] = target: T1, BK B2-Receptor in h-TM cells (Homo sapiens, UniProt P30411); assay: Antagonism of BK-induced [Ca^2+]i mobilization in h-TM cells; assay type: cell-based; conditions: read-out: Antagonist Potency (Ki; nM) vs BK (10 nM) in [Ca^2+]i Mobilization Assay, mean ± SEM or individual experiments
T1 construct: we discovered and pharmacologically characterized B2-receptor proteins in h-TM, h-CM and h-NPE cells; endogenous in cells; host or cells: primary human trabecular meshwork (h-TM) cells
T1 sequence (P30411 1-391): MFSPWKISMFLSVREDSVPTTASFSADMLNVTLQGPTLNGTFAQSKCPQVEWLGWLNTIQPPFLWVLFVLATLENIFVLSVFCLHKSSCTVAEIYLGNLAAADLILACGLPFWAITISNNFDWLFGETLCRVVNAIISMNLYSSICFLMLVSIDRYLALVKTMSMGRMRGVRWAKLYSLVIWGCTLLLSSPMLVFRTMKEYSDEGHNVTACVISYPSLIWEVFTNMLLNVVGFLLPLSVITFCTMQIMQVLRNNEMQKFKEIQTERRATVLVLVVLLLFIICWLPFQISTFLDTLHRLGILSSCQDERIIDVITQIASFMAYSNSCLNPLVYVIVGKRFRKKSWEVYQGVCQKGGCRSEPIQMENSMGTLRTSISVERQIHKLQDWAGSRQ
Description: (§1) Opthalmol. Vis. Res. 47: 4001-4019, 2006; Sharif et al., J. Ocular Pharmacol. Ther. 22: 291-309, 2006).
On the day of the experiment, one vial of FLIPR Calcium Assay Kit dye is re-suspended in 50 mL of a FLIPR buffer consisting of Hank's Balanced Salt Solution (HBSS), 20 mM HEPES, and 2.5 mM probenecid, pH 7.4. Cells are loaded with the calcium-sensitive dye by addition of an equal volume (50 μL) to each well of the 96-well plate and incubated with dye for 1 h at 23° C. After this time, the test compound plate and cell plate are placed in the FLIPR instrument. At the beginning of an experimental run, a signal test is performed to check the basal fluorescence signal from the dye-loaded cells and the uniformity of the signal across the plate. The basal fluorescence is adjusted between 8000-12000 counts by modifying the exposure time, the camera F-stop, or the laser power. […]
Fluorescence data are collected in real-time at 1.0 sec intervals for the first 60 secs and at 6.0 sec intervals for an additional 120 secs. […] The data are then analyzed using an automated, iterative, sigmoidal curve-fitting computer program to obtain the potency and intrinsic activities of the test agents as previously described (Sharif et al. J. Pharmacol. Exp. Ther. 286: 1094-1102, 1998; Sharif et al. Invest. Opthalmol. Vis. Sci. 39:2562-2571, 1998; Kelly et al. J. Pharmacol. Exp. Ther. 304: 238-245, 2003). […]

[2] = target: T2, BK B2-Receptor in h-CM cells (Homo sapiens, UniProt P30411); assay: Antagonism of BK-induced [Ca^2+]i mobilization in h-CM cells; assay type: cell-based; conditions: read-out: Antagonist Potency (Ki; nM) vs BK (10 nM) in [Ca^2+]i Mobilization Assay, mean ± SEM or individual experiments
T2 construct: we discovered and pharmacologically characterized B2-receptor proteins in h-TM, h-CM and h-NPE cells; endogenous in cells; host or cells: primary human ciliary muscle (h-CM) cells
T2 sequence (P30411 1-391): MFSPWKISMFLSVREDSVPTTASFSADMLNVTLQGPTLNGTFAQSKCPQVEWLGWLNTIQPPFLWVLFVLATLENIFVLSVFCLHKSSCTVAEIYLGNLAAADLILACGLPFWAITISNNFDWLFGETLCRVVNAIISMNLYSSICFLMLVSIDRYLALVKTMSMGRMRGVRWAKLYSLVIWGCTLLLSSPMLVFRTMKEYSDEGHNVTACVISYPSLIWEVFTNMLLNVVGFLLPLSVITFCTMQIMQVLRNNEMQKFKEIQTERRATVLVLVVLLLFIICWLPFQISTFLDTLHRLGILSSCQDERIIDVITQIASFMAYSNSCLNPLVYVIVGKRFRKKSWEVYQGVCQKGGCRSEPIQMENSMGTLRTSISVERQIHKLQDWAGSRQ
Description: as §1
(§2) On the day of the experiment, one vial of FLIPR Calcium Assay Kit dye is re-suspended in 50 mL of a FLIPR buffer consisting of Hank's Balanced Salt Solution (HBSS), 20 mM HEPES, and 2.5 mM probenecid, pH 7.4. Cells are loaded with the calcium-sensitive dye by addition of an equal volume (50 μL) to each well of the 96-well plate and incubated with dye for 1 h at 23° C. After this time, the test compound plate and cell plate are placed in the FLIPR instrument. At the beginning of an experimental run, a signal test is performed to check the basal fluorescence signal from the dye-loaded cells and the uniformity of the signal across the plate. The basal fluorescence is adjusted between 8000-12000 counts by modifying the exposure time, the camera F-stop, or the laser power. Instrument settings for a typical assay are the following: laser power 0.3-0.6 W, camera F-stop F/2, and exposure time 0.4 sec.
(§3) Fluorescence data are collected in real-time at 1.0 sec intervals for the first 60 secs and at 6.0 sec intervals for an additional 120 secs. […] The data are then analyzed using an automated, iterative, sigmoidal curve-fitting computer program to obtain the potency and intrinsic activities of the test agents as previously described (Sharif et al. J. Pharmacol. Exp. Ther. 286: 1094-1102, 1998; Sharif et al. Invest. Opthalmol. Vis. Sci. 39:2562-2571, 1998; Kelly et al. J. Pharmacol. Exp. Ther. 304: 238-245, 2003). The sources of materials and reagents for such assays can be found in the references cited above.

[3] = target: T3, BK B2-Receptor in h-NPE cells (Homo sapiens, UniProt P30411); assay: Antagonism of BK-induced [Ca^2+]i mobilization in immortalized h-NPE cells; assay type: cell-based; conditions: read-out: Antagonist Potency (Ki; nM) vs BK (10 nM) in [Ca^2+]i Mobilization Assay, mean ± SEM or individual experiments
T3 construct: we discovered and pharmacologically characterized B2-receptor proteins in h-TM, h-CM and h-NPE cells; endogenous in cells; host or cells: immortalized human non-pigmented ciliary epithelial (h-NPE) cells
T3 sequence (P30411 1-391): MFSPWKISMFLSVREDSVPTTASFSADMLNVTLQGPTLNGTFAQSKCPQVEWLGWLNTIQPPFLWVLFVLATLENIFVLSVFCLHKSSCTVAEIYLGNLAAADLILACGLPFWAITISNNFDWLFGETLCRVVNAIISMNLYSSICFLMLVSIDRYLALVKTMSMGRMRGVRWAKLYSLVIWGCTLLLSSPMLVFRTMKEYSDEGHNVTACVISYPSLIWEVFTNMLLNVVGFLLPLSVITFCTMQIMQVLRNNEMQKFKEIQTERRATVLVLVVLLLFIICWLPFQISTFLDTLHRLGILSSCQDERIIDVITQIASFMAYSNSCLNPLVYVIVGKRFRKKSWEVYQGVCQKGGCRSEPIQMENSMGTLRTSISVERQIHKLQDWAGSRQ
Description: as §1, §2, §3

[4] = target: T4, B2-receptors in h-NPE cells (Homo sapiens, UniProt P30411); assay: BK- and BK-related peptide-induced [Ca^2+]i mobilization in h-NPE cells (agonist potency); assay type: cell-based; conditions: BK = 100%, read-out: Intrinsic Activity (Emax, % max relative to BK)
T4 construct: we discovered and pharmacologically characterized B2-receptor proteins in h-TM, h-CM and h-NPE cells; endogenous in cells; host or cells: immortalized human non-pigmented ciliary epithelial (h-NPE) cells
T4 sequence (P30411 1-391): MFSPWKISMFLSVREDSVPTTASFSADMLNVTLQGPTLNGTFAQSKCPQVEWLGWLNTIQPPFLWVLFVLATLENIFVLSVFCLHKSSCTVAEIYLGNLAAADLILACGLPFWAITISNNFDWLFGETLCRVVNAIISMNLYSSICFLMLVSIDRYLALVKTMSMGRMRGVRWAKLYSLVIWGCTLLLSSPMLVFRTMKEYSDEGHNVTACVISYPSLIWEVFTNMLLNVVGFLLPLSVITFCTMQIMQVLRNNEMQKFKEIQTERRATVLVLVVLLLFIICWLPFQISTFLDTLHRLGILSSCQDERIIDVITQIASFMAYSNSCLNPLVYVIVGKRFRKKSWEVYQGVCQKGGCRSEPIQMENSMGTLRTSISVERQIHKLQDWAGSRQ

[5] = system: Conscious Ocular Hypertensive Cynomolgus Monkey Eyes; assay: IOP response in conscious ocular hypertensive cynomolgus monkey eyes; assay type: in vivo; conditions: for % Change in IOP (mmHg): topical ocular 300 μg, mean ± SEM
Description: Intraocular pressure (IOP) is determined with an Alcon Pneumatonometer (Alcon Laboratories, Inc., Fort Worth, Tex.) after light corneal anesthesia with 0.1% proparacaine. Right eyes are hypertensive as a result of laser trabeculoplasty. After a baseline IOP measurement, test compound is instilled in the right eyes only of 8-10 cynomolgus monkeys. Vehicle is instilled in the right eyes of 5-6 additional animals. […] IOP measurements are also taken on left eyes (normotensive and untreated) at each of these time points. The percent change in IOP from baseline is determined for each animal for every IOP measurement (Sharif et al. J. Ocular Pharmacol. Ther. 17: 305-317, 2001; May et al., J Pharmacol Exp Ther. 306: 301-309, 2003; Sharif et al. Invest. Opthalmol. Vis. Res. 47: 4001-4010, 2006). Group mean and standard error of the mean (SEM) are calculated for each time point. […] In cases where the compound of invention has poor ocular bioavailability, the compound may need to be administered intracamerally or intravitreally in order to observe the IOP-lowering efficacy.

B1-receptor mRNA = assay: Microarray analysis of B1-receptor mRNA in TGFβ2-treated human TM cells; assay type: cell-based; conditions: Glaucomatous h-TM cells, control 0.99 ± 0.58
B2-receptor mRNA = assay: Microarray analysis of B2-receptor mRNA in TGFβ2-treated human TM cells; assay type: cell-based

Molecule: CCCC[P+](CCCC)(CCCC)Cc1ccc(NC(=O)[C@H](Cc2ccc3ccccc3c2)NC(=NC2CCCCC2)NC2CCCCC2)cc1.[Cl-] [WIN-64338]
% Change in IOP (mmHg) ([5]; Dose 1/1 hr post-dose): 1.7 ± 1.6%
% Change in IOP (mmHg) ([5]; Dose 1/3 hr post-dose): −10.4 ± 2.8%
% Change in IOP (mmHg) ([5]; Dose 1/6 hr post-dose): 1.3 ± 1.3%
modulation of IOP (in words) ([5]; topically administered 300 μg, conscious cynomolgus monkeys): failed to modulate IOP

B1: TGFβ2: cytokine transforming growth factor-β2 (protein, UniProt P61812 303-414, looked up)
Transforming growth factor …: ALDAAYCFRNVQDNCCLRPLYIDFKRDLGWKWIHEPKGYNANFCAGACPYLWSSDTQHSRVLSLYNTINPEASASPCCVSQDLEPLTILYYIGKTPKIEQLSNMIVKSCKCS
Normalized level of B1-receptor mRNA (GC-RMA, mean ± SEM) (B1-receptor mRNA; after 1.5 hr): 1.54 ± 0.09
Normalized level of B1-receptor mRNA (GC-RMA, mean ± SEM) (B1-receptor mRNA; after 16 hr): 0.53 ± 0.05
Normalized level of B2-receptor mRNA (GC-RMA, mean ± SEM) (B2-receptor mRNA; Glaucomatous h-TM cells, after 1.5 hr, control 0.99 ± 0.04): 0.97 ± 0.06
Normalized level of B2-receptor mRNA (GC-RMA, mean ± SEM) (B2-receptor mRNA; Glaucomatous h-TM cells, after 16 hr, control 0.99 ± 0.04): 0.24 ± 0.06
Normalized level of B2-receptor mRNA (GC-RMA, mean ± SEM) (B2-receptor mRNA; Normal h-TM cells, after 1.5 hr, control 0.99 ± 0.06): 0.68 ± 0.05
Normalized level of B2-receptor mRNA (GC-RMA, mean ± SEM) (B2-receptor mRNA; Normal h-TM cells, after 16 hr, control 0.99 ± 0.06): 0.14 ± 0.11

The next lines start with results.

Ki [1]: 121 nM and 193 nM
Ki [2]: 35 nM and 11 nM
Molecule: CC(=O)Nc1ccc(/C=C/C(=O)NCC(=O)N(C)c2ccc(Cl)c(COc3cccc4ccc(C)nc34)c2Cl)cn1 [FR-173657]
Ki [3]: 787 nM and 788 nM

Emax [4]: 70 to 77%
Molecule: CSCC[C@H](N)C(=O)N[C@@H](CCCCN)C(=O)N[C@@H](CCCNC(=N)N)C(=O)N1CCC[C@H]1C(=O)N1CCC[C@H]1C(=O)NCC(=O)N[C@@H](Cc1ccccc1)C(=O)N[C@@H](CO)C(=O)N1CCC[C@H]1C(=O)N[C@@H](Cc1ccccc1)C(=O)N[C@@H](CCCNC(=N)N)C(=O)O [Met-Lys-BK]
